Entries after “also recorded” stand apart in the source; their conditions may differ.
Columns and labels:
PARP = PARP cleavage (apoptosis indicator) in MOLT4 cells; type: cell-based, Human; details: 6 h
Procedure: Cells were collected and lysed in RIPA lysis buffer (Cat. #BP-115DG, Boston Bio Products, Ashland, MA, USA) supplemented with protease and phosphatase inhibitor cocktails (Cat. #PPC1010, Sigma-Aldrich, St. Louis, MO, USA). Protein samples were made and immunoblotting was performed as described previously (Khan et al., 2019; Lv et al., 2021). Antibodies purchased from Cell Signaling Technologies (CST) and the dilutions are as follows: Biotin (Cat. No. 5571S, 1:1000), PARP (Cat. No. 9542S, 1:1000), c-Myc (Cat. No. 5605S, 1:1000), MCL1 (Cat. No. 5453S, 1:1000), and ALK (Cat. No. 3791S, 1:1000). KEAP1 antibody was purchased from Proteintech (Cat. No. 10503-2-AP, 1:1000). CDK9 antibody was purchased from Santa Cruz (Cat. No. sc-13130, 1:500). V5-tag antibody was purchased from Bethyl (Cat. No. A190-120P, 1:1000). j-actin antibody was purchased from MP Biomedicals (Cat. No. 8691001, 1:20 000).

MOLT4 cells = assay: Viability (MTS) assay in MOLT4 cells; type: cell-based, Human; details: 72 h treatment
Procedure: (§1) Human T-ALL MOLT4 (Cat. No. CRL-1582), K562 (Cat. No. CCL-243), NCI-H1299 (Cat. No. CRL-5803), NCI-H2228 (Cat. No. CRL-5935), LNCaP (Cat. No. CRL-1740), 22RV1 (Cat. No. CRL-2505), PC3 (Cat. No. CRL-1435), DU145 (Cat. No. HTB-81), and epithelial kidney HEK 293T (293T, Cat. No. ACS-4500) cell lines were recently purchased from American Type Culture Collection (ATCC, Manassas, VA, USA). MOLT4, K562, NCI—H-1299, NCI-H2228, LNCap, and 22RV 1 cell lines were cultured in RPMI 1640 medium (Cat No. 22400-089, Thermo Fisher Scientific, Waltham, MA, USA) supplemented with 10% (v/v) heat-inactivated fetal bovine serum (FBS, Cat. No. S11150H, Atlanta Biologicals, Flowery Branch, GA, USA), 100 U/mL penicillin and 100 pig/mL streptomycin (Pen-Strep, Cat. No. 15140122, Thermo Fisher Scientific). PC3 cells were cultured in complete F—12K medium (Kaighn's modification of Ham's F-12 medium, Cat. No. 30-2004, ATCC) supplemented with 10% (v/v) heat-inactivated FBS, 100 U/mL penicillin, and 100 μg/mL streptomycin. […]
Viability (MTS) assays in various cancer cells followed the methods described in our previous report (Khan et al., 2019). The data were expressed as average % cell viability and fitted in non-linear regression curves using GraphPad Prism 9 (GraphPad Software, La Jolla, CA, USA).

CDK9 = CDK9 (Homo sapiens, UniProt P50750); assay: CDK9 degradation and c-Myc/MCL-1 downregulation in LNCaP cells (immunoblot); type: cell-based; design: endogenous in cells; host or cells: MOLT4, 293T, K562, NCI-H1299, LNCaP
Procedure: as §1, with “streptomycin. DU145 cells were cultured in complete Eagle's Minimum Essential Medium (EMEM, Cat. No. 30-2003, ATCC) supplemented with 10% (v/v) heat-inactivated FBS, 100 U/mL penicillin, and 100 μg/mL streptomycin.” for “streptomycin.”
Immunoblot data were quantified using the ImageJ (v 1.53a) software from NIH. […]

Sequence of CDK9 (P50750 whole entry): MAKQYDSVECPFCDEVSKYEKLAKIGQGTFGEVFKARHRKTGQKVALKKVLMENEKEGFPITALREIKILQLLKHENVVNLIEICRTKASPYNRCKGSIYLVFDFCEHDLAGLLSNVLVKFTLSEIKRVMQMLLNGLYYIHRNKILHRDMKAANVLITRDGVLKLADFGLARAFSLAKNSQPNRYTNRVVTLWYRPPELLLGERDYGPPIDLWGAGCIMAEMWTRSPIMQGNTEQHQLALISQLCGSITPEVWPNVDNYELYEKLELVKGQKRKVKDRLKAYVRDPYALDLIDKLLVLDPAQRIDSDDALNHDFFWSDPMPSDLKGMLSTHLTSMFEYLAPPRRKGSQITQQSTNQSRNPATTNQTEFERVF

COc1cc(/C=C/C(=O)N2CCC=CC2=O)cc(OC)c1OCCN1CCN(C(=O)CN2CCC(C(=O)Nc3ncc(SCc4ncc(C(C)(C)C)o4)s3)CC2)CC1 [compound 955, (E)-N-(5-(((5-(tert-butyl)oxazol-2-yl)methyl)thio)thiazol-2-yl)-1-(2-(4-(2-(2,6-dimethoxy-4-(3-oxo-3-(6-oxo-3,6-dihydropyridin-1(2H)-yl)prop-1-en-1-yl)phenoxy)ethyl)piperazin-1-yl)-2-oxoethyl)piperidine-4-carboxamide]
induction of PARP cleavage / apoptotic cell death compared with SNS-032 (PARP): more apoptotic cell death compared with SNS-032; also recorded: more potent in inducing PARP cleavage than SNS-032 | potency to kill MOLT4 cells compared with SNS-032 (MOLT4 cells): more potent to kill MOLT4 cells compared with SNS-032 | CDK9 degradation and downregulation of c-Myc and MCL-1 (CDK9): dose-dependent manner; also recorded: potently degraded CDK9 and downregulated c-Myc and MCL-1

Source: patent US20250057963A1, “DISCOVERY OF PIPERLONGUMINE AS A NOVEL E3 LIGASE LIGAND” (University of Florida Research Foundation, Incorporated, priority 2021, published 2025)
